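All cell lines were grown in 96-well plates and treated with compound for 48 hours. The concentration for full growth arrest is given as TGI.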 Where a SMILES comes first, the peptide text is derived from it. Bridges are numbered along the chain shown (N, C = ends). [ ]: non-standard residue; d: D form. Aib = CC(C)(N)C(=O)O; βAla = NCCC(=O)O

What all share (assay): NCI-60 cell line screen, 48 h
In test [1] the test system is HS 578T breast.
In test [2] the test system is PC-3 prostate.
Test [3] relates to SNB-75 CNS.
The subject of test [4] is MALME-3M melanoma.
For test [5], the system named is COLO 205 colon.
Test [6] relates to M14 melanoma.
Test [7] relates to NCI-H23 lung.
In test [8] the test system is UACC-257 melanoma.
Test [9] concerns OVCAR-3 ovarian.
In test [10] the test system is HCT-116 colon.
For test [11], the system named is NCI/ADR-RES ovarian.
The test system of test [12] is KM12 colon.
Test [13] concerns A549 NSCLC.
The test system of test [14] is LOX IMVI melanoma.
Test [15] concerns NCI-H522 lung.
In test [16] the test system is SR leukemia.

Regarding `N#CC(c1ccccc1)N(CCCCCCN(C(=O)c1ccccc1)C(C#N)c1ccccc1)C(=O)c1ccccc1` (stereo not given), the TGI in test [1] is 83.6 µM; in [2], over 100 µM; in [3] it was over 100 µM; in [4], over 100 µM; in [5], 39.8 µM; in [6], over 100 µM. Moreover, the TGI in [7] was 73.8 µM; in [8], 63.9 µM; in test [9], over 100 µM; in [10], 83.4 µM; in [11], 51.2 µM; in test [12] it was over 100 µM. Also, the TGI in test [13] and in [14] was over 100 µM throughout.
`NC1N=C(c2ccc(Cl)cc2)C2=C(N1)c1ccccc1CC2` (stereo not given): the TGI was over 100 µM in test [1]; over 100 µM in test [2]; over 22.7 µM in test [3]; over 100 µM in test [4]; over 100 µM in [5]; over 59.3 µM in test [6]. Besides, the TGI was over 100 µM in test [7]; over 100 µM in test [8]; over 100 µM in test [9]; over 56.9 µM in [10]; over 100 µM in test [11]; over 67 µM in [12]. Besides, the TGI in test [15] was 36.2 µM; in [13], over 80.7 µM; in [14], over 50.9 µM.
For `CC1CC(N)=C(C#N)C1(C#N)C#N` (stereo not given), the TGI in [1], in [2], in test [3], in test [4], in test [5] and in [6] was over 100 µM each time. Moreover, the TGI in test [7], in [8], in [10], in test [11], in test [12] and in [15] was over 100 µM throughout. Moreover, the TGI in [13] and in test [14] was over 100 µM throughout.
For the compound `C[C@H](C1CC(C)(O)C(C)(O)C(O)O1)[C@H]1CC[C@H]2[C@@H]3[C@@H]4O[C@@H]4[C@@]4(O)CC=CC(=O)[C@]4(C)[C@H]3CC[C@]12C` (stereo not given in full), the TGI in test [1] was 17.4 µM; in [2] it was over 50 µM; in test [3], over 50 µM; in test [4], 31.5 µM; in [5], over 50 µM; in test [6], over 50 µM. The TGI in test [7], in test [8], in test [9], in test [10], in test [11] and in test [12] was over 50 µM throughout. Moreover, the TGI in test [15], in test [13] and in test [14] was over 50 µM in each case.
With `CN(C)C(C1=C(O)C(c2ccccc2)N(c2ccccc2)C1=O)N1CCOCC1` (stereo not given), the TGI in [1], in [2], in test [3], in [4], in [5] and in [6] was over 10 µM each time. The TGI in test [7], in test [8], in [9], in test [10], in test [11] and in [12] was over 10 µM in each case. For the same compound, the TGI in test [15], in [13] and in [14] was over 10 µM throughout.
As for `COc1ccc(C(c2ccccc2)(c2ccc(OC)cc2)N2C(=O)NC3C(CCCCC(=O)NCCCCCCOP(OCCC#N)N(C(C)C)C(C)C)SCC32)cc1` (stereo not given), the TGI in test [4] is 33.5 µM; in test [5], 40.7 µM; in [6], 34.2 µM; in [7], 32.3 µM; in [8], 42.6 µM; in test [9], 28.1 µM. For the same compound, the TGI in test [10] stood at 24.9 µM; in test [16] it was 27.2 µM; in test [12] it was 34 µM; in [15], 27.3 µM; in test [13] it was 41.8 µM; in test [14], 24 µM.
Consider `COC(=O)[C@]12CC3C=CC1N(C3)C(CBr)c1c2n(S(=O)(=O)c2ccccc2)c2ccccc12` (stereo not given in full), for which the TGI is over 100 µM in [1]; over 100 µM in test [2]; 86.2 µM in test [3]; over 100 µM in [4]; over 100 µM in [5]; over 100 µM in [6]. Also, the TGI in [7], in [8], in [9], in [10], in [11] and in [12] was over 100 µM in each case. Further, the TGI in test [15], in test [13] and in test [14] was over 100 µM in each case.
`CC(/C=C/C(=O)NO)=C\C(C)C(=O)c1ccc(N(C)C)cc1` (stereo not given): the TGI in [1] turned out to be 0.133 µM; in test [2], 10.7 µM; in [3] it was 0.234 µM; in test [4], 0.0239 µM; in [5] it was 0.0854 µM; in test [6] it was 0.971 µM. For the same compound, the TGI in test [7] was 4 µM; in [8] it was 0.387 µM; in test [10], 11.5 µM; in test [12] it was 0.932 µM; in test [15], under 0.0129 µM; in test [13] it was 0.0814 µM.
In the case of `OC1(C(Sc2cc(C(F)(F)F)cc(C(F)(F)F)c2)Sc2cc(C(F)(F)F)cc(C(F)(F)F)c2)C=CCCC1` (stereo not given), the TGI in test [1] worked out at 13.3 µM; in test [3], 10.8 µM; in test [4] it was 8.81 µM; in test [5], 5.59 µM; in test [6], 6.53 µM; in [7], 8.66 µM. Further, the TGI was found to be 3.56 µM in test [8]; 6.14 µM in [9]; 6.74 µM in [10]; 10.1 µM in test [11]; 5.83 µM in [12]; 5.75 µM in [15]. The TGI in test [13] worked out at 6.1 µM; in test [14], 5.9 µM.
For the compound `O=C1C2C(C(=O)N1c1ccccc1)C1(c3ccccc3)CCC2(C(=O)c2ccccc2)O1` (stereo not given), the TGI in test [1], in test [2], in test [4], in test [5], in test [6] and in test [7] was over 10 µM in each case. Moreover, the TGI in test [8], in test [9], in test [10], in test [11], in test [12] and in test [15] was over 10 µM each time. In addition, the TGI in test [13] and in test [14] was over 10 µM in each case.
Take `Cc1nc2sccn2c1C(=O)NN`: the TGI in [4], in [5], in test [7], in test [8], in [9] and in test [10] was over 100 µM in each case. Further, the TGI in test [16], in [12], in test [15], in [13] and in [14] was over 100 µM throughout.
Turning to `COc1ccc(C(=O)C#Cc2cn(C3CC(O)C(CO)O3)c(=O)[nH]c2=O)cc1` (stereo not given), the TGI was over 100 µM in test [1]; over 100 µM in test [2]; over 100 µM in test [3]; 22.7 µM in test [4]; over 100 µM in [5]; 75 µM in [6]. Besides, the TGI in test [7] was over 100 µM; in test [8], over 100 µM; in test [9], 34.9 µM; in test [10], over 100 µM; in test [11], over 100 µM; in test [12] it was over 100 µM. Besides, the TGI is 24.5 µM in test [15] and over 100 µM in test [13].
Consider `CC1(C)NC(=O)C(NC(=O)C(N)CC(=O)O)CCCCNC(=O)CCNC1=O` (stereo not given) (H-DK[Aib][βAla]; lactam 2-C; configuration not given here), for which the TGI in test [1], in test [2], in [3], in [4], in test [5] and in test [6] was over 100 µM in each case. Further, the TGI in test [7], in test [8], in test [9], in [10], in test [11] and in test [12] was over 100 µM in each case. Moreover, the TGI in test [15], in [13] and in test [14] was over 100 µM each time.
For the compound `CC1=C(C#N)C(=C(C#N)C#N)OC1(C)Cc1ccccc1` (stereo not given), the TGI in [1] was over 100 µM; in test [2], over 100 µM; in [3] it was over 100 µM; in test [5], 43 µM; in [6] it was over 100 µM; in test [7], over 100 µM. In addition, the TGI in test [8] was over 100 µM; in test [9], 74.9 µM; in [10], over 100 µM; in test [11], over 100 µM; in [12] it was over 100 µM; in [15], 36.8 µM. Further, the TGI in [13] was over 100 µM; in test [14], 41 µM.
Take `COc1cccc2c1c1ccc3c(c1n2C)C(=O)C=CC3=O`: the TGI came out at 27.1 µM in test [4]; 19.6 µM in [5]; 27.7 µM in [6]; 32.2 µM in test [7]; 30.3 µM in test [8]; 30.5 µM in [9]. In addition, the TGI in test [10] is 27.2 µM; in [16], 6.65 µM; in test [12] it was over 100 µM; in [15], 14.7 µM; in [13], over 100 µM; in [14], 32.2 µM.
With `COc1cccc(/C=N/n2c(Cc3ccccc3)n[nH]c2=O)c1`, the TGI is 50 µM in [1]; over 100 µM in test [2]; 61.2 µM in test [3]; over 100 µM in test [4]; over 100 µM in [5]; over 100 µM in [6]. Also, the TGI in test [7], in [8], in test [9], in [10], in [11] and in test [12] was over 100 µM in each case. Besides, the TGI in [15], in test [13] and in test [14] was over 100 µM in each case.
On to `Cc1ccc(C)n1-c1ccccc1C1C=Cn2c(=O)nnc3c(OC(C)C)c(OC(C)C)c(O)c1c32` (stereo not given), for which the TGI is over 100 µM in [1]; over 100 µM in test [2]; over 100 µM in test [3]; 76.5 µM in test [4]; 27.7 µM in test [5]; over 100 µM in test [6]. The TGI in [7] was over 100 µM; in test [8] it was over 100 µM; in test [9], over 100 µM; in test [10] it was 70.1 µM; in test [11], over 100 µM; in test [12] it was over 100 µM. Moreover, the TGI was 49.6 µM in test [15], over 100 µM in test [13] and over 100 µM in test [14].
With `O=c1nc2n3c4c(cccc4nc-2c(=O)[nH]1)CCC3`, the TGI in test [1] was over 100 µM; in [2], over 100 µM; in test [3], over 100 µM; in [4], 39.2 µM; in [5], over 100 µM; in test [6], over 100 µM. Moreover, the TGI in [7], in test [8], in test [9], in test [10], in [11] and in test [12] was over 100 µM throughout. The TGI in test [15] was 71.4 µM; in test [13], over 100 µM; in test [14] it was over 100 µM.
Take `CC(=O)OC[C@H]1CN(OC(C)=O)C[C@@H](n2cc(C)c(=O)[nH]c2=O)O1`: the TGI in test [1], in [2], in [3], in test [5], in test [6] and in test [8] was over 100 µM each time. Also, the TGI in [10], in test [12] and in test [13] was over 100 µM in each case.

Source of the values: PubChem BioAssay (NCI).
